According to US20150210669A1, “COMPOUND FOR THE TREATMENT OF TUMOURS AND TUMOUR METASTASES” (SIENA BIOTECH S.P.A., priority 2010, published 2015):

What was measured:
[1] = system: Hh pathway; test: alkaline phosphatase-based assay of Hh pathway inactivation; assay type: cell-based; conditions: alkaline phosphatase-based assay described in WO2009074300
Procedure: The level of inactivation of the Hh pathway resulting from this binding was determined using the alkaline phosphatase-based assay described in WO2009074300, resulting in an IC50 value below 30 nM.

[2] = target: Smo receptor (Homo sapiens, UniProt Q99835); test: competitive binding assay displacing fluorescently-labeled Bodipy-Cyclopamine; conditions: displacement of Bodipy-Cyclopamine; assay described in WO2009074300; read-out: Ki, binding affinity with the Smo receptor
Smo receptor, sequence (Q99835 28-787): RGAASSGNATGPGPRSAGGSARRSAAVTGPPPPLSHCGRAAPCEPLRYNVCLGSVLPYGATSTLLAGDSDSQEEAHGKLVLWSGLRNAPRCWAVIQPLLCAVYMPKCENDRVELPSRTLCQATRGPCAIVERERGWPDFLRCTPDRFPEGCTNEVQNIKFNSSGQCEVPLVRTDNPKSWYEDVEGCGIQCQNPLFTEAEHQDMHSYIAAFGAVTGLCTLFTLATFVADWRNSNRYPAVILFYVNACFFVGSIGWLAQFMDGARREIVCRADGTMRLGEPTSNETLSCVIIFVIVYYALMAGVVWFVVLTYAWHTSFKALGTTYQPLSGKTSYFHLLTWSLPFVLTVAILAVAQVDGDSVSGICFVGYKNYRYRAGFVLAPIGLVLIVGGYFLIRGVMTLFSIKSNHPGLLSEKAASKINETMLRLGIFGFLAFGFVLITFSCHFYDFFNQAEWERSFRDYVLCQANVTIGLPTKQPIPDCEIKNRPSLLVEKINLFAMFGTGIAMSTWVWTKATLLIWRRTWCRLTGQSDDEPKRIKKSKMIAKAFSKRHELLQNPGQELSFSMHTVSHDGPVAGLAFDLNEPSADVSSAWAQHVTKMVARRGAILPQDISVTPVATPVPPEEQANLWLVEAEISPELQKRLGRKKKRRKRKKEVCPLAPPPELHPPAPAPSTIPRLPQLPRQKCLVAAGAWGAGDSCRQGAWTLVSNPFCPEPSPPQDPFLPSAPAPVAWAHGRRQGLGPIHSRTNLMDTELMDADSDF

SMILES: Cc1ccc(-c2cc(N3CCC(C(=O)N4CCN(C)CC4)CC3)ccc2Cl)nc1 [Compound C, {1-[4-Chloro-3-(5-methyl-pyridin-2-yl)-phenyl]-piperidin-4-yl}-(4-methyl-piperazin-1-yl)-methanone]
- IC50 [1]: < 30 nM
- Ki [2]: < 100 nM
